In patent US20240140941A1, “DERIVATIVE OF 2,5-DIKETOPIPERAZINE COMPOUND, AND PREPARATION METHOD THEREFOR, PHARMACEUTICAL COMPOSITION THEREOF AND USE THEREOF” (DALIAN WZ PROBIOTICS AD HEALTH CO., LTD, priority 2020, published 2024):
Read-outs that look alike come from different tables or passages of the source.

Assays:
BxPC-3 = assay: Inhibition test on cell proliferation (MTT), BxPC-3; assay type: cell-based, human; details: Homo sapiens, BXPC-3, 72 h, read-out: IC50 (nM) BxPC-3
Procedure: (§1) Tumor cells (NCI-H460, BxPC-3, HT-29, HCC-LM3) in the logarithmic growth phase were digested, centrifuged, and the supernatants were removed. Cells were resuspended by adding fresh culture medium, and counted using a cell counting plate. 100 μL of culture medium (containing cells) was added to a 96-well plate according to the standard of 2000 to 6000 cells per well and incubated in an incubator (37° C., 5% CO2) for 24 hours. After the cells were completely adhered to the wall, the test sample and Plinabulin were diluted to different concentrations using fresh culture medium, and 4 wells were set for each concentration. After 72 hours of drug treatment, the culture medium was removed, and 20 μL of MTT at a concentration of 5 mg/mL was added to each well. After 3-4 hours in the incubator, the MTT was discarded, and 100 μL of DMSO was added to each well, and placed in a 96-well plate shaker to completely dissolve the purple formazan. Subsequently, the absorbance (OD value) was detected at a wavelength of 490 nm using a microplate reader. The experiment also required setting up zero-setting wells (blank culture medium, MTT, DMSO). Cell inhibition rate=1−(OD value of drug-dosed group−OD value of zero-setting group)/(OD value of blank group−OD value of zero-setting group)×100%.

NCI-H460 = assay: Inhibition test on cell proliferation (MTT), NCI-H460; assay type: cell-based, human
Procedure: as §1

[1] = 72 hours of drug treatment, MTT
[2] = Homo sapiens, NCI-H460, 72 h, 72 hours of drug treatment, MTT, read-out: IC50 (nM) NCI-H460
[3] = Homo sapiens, NCI-H460, 72 h, read-out: IC50 (nM) NCI-H460, 72 hours of drug treatment, MTT

Row | SMILES | IC50 (BxPC-3; [1]) [nM] | IC50 (NCI-H460; [2]) [nM] | also measured
1 | CC(C)c1c(/C=c2\[nH]c(=O)/c(=C/c3cccc(C(=O)c4ccc(F)cc4)c3)[nH]c2=O)ncn1CCCN1CCN(C(=O)OC(C)(C)C)CC1 [PLN-2-15, (3Z,6Z)-3-(3-(p-fluorobenzoyl)phenyl)methylene-6-((5-isopropyl-1-(3-N-tert-butoxycarbonylpiperazinyl)propylimidazol-4-yl)methylene)piperazine-2,5-dione] | 6.77 ± 0.08 | 8.01 ± 1.24 | –
2 | CC(C)c1c(/C=c2\[nH]c(=O)/c(=C/c3cccc(C(=O)c4ccc(F)cc4)c3)[nH]c2=O)ncn1CCCN1CCN(C(=O)C23CC4CC(CC(C4)C2)C3)CC1 [PLN-2-39, (3Z,6Z)-3-(3-(p-fluorobenzoyl)phenyl)methylene-6-((5-isopropyl-1-(3-N-adamantanecarbonylpiperazinyl)propylimidazol-4-yl)methylene)piperazine-2,5-dione] | – | – | IC50 (NCI-H460; [3]): 37.2 ± 3.61 nM
3 | O=c1[nH]/c(=C\c2ncn(CCCN3CCNCC3)c2C2CC2)c(=O)[nH]/c1=C\c1cccc(Oc2ccc(F)cc2)c1 [PLN-2-19] | – | – | IC50 (NCI-H460; [3]): 213 ± 12.8 nM
4 | CC(C)c1c(/C=c2\[nH]c(=O)/c(=C/c3cccc(C(=O)c4ccc(F)cc4)c3)[nH]c2=O)ncn1CCCN1CCN(C(=O)C(C)(C)C)CC1 [PLN-2-33, (3Z,6Z)-3-(3-(p-fluorobenzoyl)phenyl)methylene-6-((5-isopropyl-1-(3-N-tert-butyrylpiperazinyl)propylimidazol-4-yl)methylene)piperazine-2,5-dione] | – | – | IC50 (BxPC-3): 6.39 ± 2.51 nM; IC50 (NCI-H460; [3]): 9.91 ± 2 nM
5 | CC(C)c1c(/C=c2\[nH]c(=O)/c(=C/c3cc(F)ccc3F)[nH]c2=O)ncn1CCCN1CCNCC1 [PLN-2-20, (3Z,6Z)-3-(2,5-difluorophenyl)methylene-6-((5-isopropyl-1-(3-piperazinyl)propylimidazol-4-yl)methylene)piperazine-2,5-dione] | 91.63 ± 0.62 | 147 ± 14.5 | –
6 | CC(C)c1c(/C=c2\[nH]c(=O)/c(=C/c3cccc(Oc4ccc(F)cc4)c3)[nH]c2=O)ncn1CCCN1CCN(C)CC1 [PLN-2-22, (3Z,6Z)-3-(3-(p-fluorophenoxy)phenyl)methylene-6-((5-isopropyl-1-(3-N-methylpiperazinyl)propylimidazol-4-yl)methylene)piperazine-2,5-dione] | 66.2 ± 1.45 | 85.7 ± 10.6 | –
7 | CC(C)c1c(/C=c2\[nH]c(=O)/c(=C/c3cccc(C(=O)c4ccc(F)cc4)c3)[nH]c2=O)ncn1CCCN1CCN(C(=O)OCc2ccc(B3OC(C)(C)C(C)(C)O3)cc2)CC1 [PLN-2-28, (3Z,6Z)-3-(3-(p-fluorobenzoyl)phenyl)methylene-6-((5-isopropyl-1-(3-N-p-(4,4,5,5-tetramethyl-1,3,2-dioxaborolan-2-yl)benzyloxycarbonylpiperazinyl)propylimidazol-4-yl)methylene)piperazine-2,5-dione] | – | – | IC50 (BxPC-3): 9.22 ± 3.93 nM; IC50 (NCI-H460; [3]): 15.4 ± 1.68 nM
8 | CC(C)c1c(/C=c2\[nH]c(=O)/c(=C/c3ccc(F)cc3)[nH]c2=O)ncn1CCCN1CCOCC1 [PLN-2-11, (3Z,6Z)-3-p-fluorobenzylidene-6-((5-isopropyl-1-(−3-morpholinyl)propylimidazol-4-yl)methylene)piperazine-2,5-dione] | – | 234 ± 25.7 | –
9 | O=c1[nH]/c(=C\c2ncn(CCCN3CCNCC3)c2C2CC2)c(=O)[nH]/c1=C\c1cccc(Oc2ccc(F)cc2)c1 [PLN-2-19-1] | – | – | IC50 (NCI-H460; read-out: IC50 (nM) NCI-H460, 72 hours of drug treatment, MTT): 204 ± 4.24 nM

Continued, in another order:

Row | IC50 (BxPC-3; [1]) [nM] | IC50 (NCI-H460; [2]) [nM] | SMILES | also measured
10 | 17.5 ± 0.27 | 20.1 ± 3.67 | CCC(CC)C(=O)N1CCN(CCCn2cnc(/C=c3\[nH]c(=O)/c(=C/c4cccc(C(=O)c5ccc(F)cc5)c4)[nH]c3=O)c2C(C)C)CC1 [PLN-2-34, (3Z,6Z)-3-(3-(p-fluorobenzoyl)phenyl)methylene-6-((5-isopropyl-1-(3-N-(2-ethylbutyryl)piperazinyl)propylimidazol-4-yl)methylene)piperazine-2,5-dione] | –
11 | 9.09 ± 0.89 | 21.6 ± 0.52 | CC(C)c1c(/C=c2\[nH]c(=O)/c(=C/c3cccc(C(=O)c4ccc(F)cc4)c3)[nH]c2=O)ncn1CCCN1CCN(C(=O)NC2CCCC2)CC1 [PLN-2-46, (3Z,6Z)-3-(3-(p-fluorobenzoyl)phenyl)methylene-6-((5-isopropyl-1-(3-N-cyclopentylaminocarbonylpiperazinyl)propylimidazol-4-yl)methylene)piperazine-2,5-dione] | –
12 | – | 11.1 ± 0.9 | CC(C)c1c(/C=c2\[nH]c(=O)/c(=C/c3cccc(C(=O)c4ccc(F)cc4)c3)[nH]c2=O)ncn1CCCN1CCN(S(=O)(=O)c2ccccc2)CC1 [PLN-2-43, (3Z,6Z)-3-(3-(p-fluorobenzoyl)phenyl)methylene-6-((5-isopropyl-1-(3-N-phenylmethylsulfonylpiperazinyl)propylimidazol-4-yl)methylene)piperazine-2,5-dione] | –
13 | 33.1 ± 0.98 | 39.2 ± 1.85 | CC(C)c1c(/C=c2\[nH]c(=O)/c(=C/c3cc(F)ccc3F)[nH]c2=O)ncn1CCCN1CCN(C(=O)OC(C)(C)C)CC1 [PLN-2-48] | –
14 | 4.4 ± 3.1 | 7.56 ± 0.33 | CC(C)=CC(=O)N1CCN(CCCn2cnc(/C=c3\[nH]c(=O)/c(=C/c4cccc(C(=O)c5ccc(F)cc5)c4)[nH]c3=O)c2C(C)C)CC1 [PLN-2-40, (3Z,6Z)-3-(3-(p-fluorobenzoyl)phenyl)methylene-6-((5-isopropyl-1-(3-N-(3,3-dimethyl)acryloylpiperazinyl)propylimidazol-4-yl)methylene)piperazine-2,5-dione] | –
15 | 13.19 ± 0.07 | 28.6 ± 1.4 | CC(C)c1c(/C=c2\[nH]c(=O)/c(=C/c3cc(F)ccc3F)[nH]c2=O)ncn1CCCN1CCN(C)CC1 [PLN-2-24] | –
16 | – | 158 ± 25.7 | CN1CCN(CCCn2cnc(/C=c3\[nH]c(=O)/c(=C/c4cccc(Oc5ccc(F)cc5)c4)[nH]c3=O)c2C2CC2)CC1 [PLN-2-23] | –
17 | 3.25 ± 2.13 | 5.55 ± 1.68 | CC(C)c1c(/C=c2\[nH]c(=O)/c(=C/c3cccc(C(=O)c4ccc(F)cc4)c3)[nH]c2=O)ncn1CCCN1CCN(C(=O)c2ccccc2)CC1 [PLN-2-41, (3Z,6Z)-3-(3-(p-fluorobenzoyl)phenyl)methylene-6-((5-isopropyl-1-(3-N-benzoylpiperazinyl)propylimidazol-4-yl)methylene)piperazine-2,5-dione] | –
18 | – | 7.3 ± 0.44 | CC(C)c1c(/C=c2\[nH]c(=O)/c(=C/c3cccc(C(=O)c4ccc(F)cc4)c3)[nH]c2=O)ncn1CCCN1CCN(C(=O)C2CCCCC2)CC1 [PLN-2-38, (3Z,6Z)-3-(3-(p-fluorobenzoyl)phenyl)methylene-6-((5-isopropyl-1-(3-N-cyclohexanecarbonylpiperazinyl)propylimidazol-4-yl)methylene)piperazine-2,5-dione] | –
19 | – | 50.1 ± 0.69 | CC(C)c1c(/C=c2\[nH]c(=O)/c(=C/c3cccc(C(=O)c4ccc(F)cc4)c3)[nH]c2=O)ncn1CCCN1CCN(c2ccc(F)cc2)CC1 [PLN-2-26, (3Z,6Z)-3-(3-(p-fluorobenzoyl)phenyl)methylene-6-((5-isopropyl-1-(3-N-(p-fluorophenyl)piperazinyl)propylimidazol-4-yl)methylene)piperazine-2,5-dione] | –
20 | – | 18.4 ± 2.95 | CC(C)c1c(/C=c2\[nH]c(=O)/c(=C/c3cccc(C(=O)c4ccc(F)cc4)c3)[nH]c2=O)ncn1CCCN1CCN(Cc2ccccc2)CC1 [PLN-2-25, (3Z,6Z)-3-(3-(p-fluorobenzoyl)phenyl)methylene-6-((5-isopropyl-1-(3-N-benzylpiperazinyl)propylimidazol-4-yl)methylene)piperazine-2,5-dione] | –
